Data from PubChem BioAssay (NCI).
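Dose response: 5 concentrations. Exposure: 48 h. Format: 96-well plates. Endpoint: linear interpolation; highest concentration if not reached. TGI marks complete inhibition of growth.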

Assays:
Assay in all cases: NCI anticancer screen, dose series, 48 h
A549 NSCLC = test system: A549 NSCLC
ACHN renal = test system: ACHN renal
CAKI-1 renal = test system: CAKI-1 renal
CCRF-CEM leukemia = test system: CCRF-CEM leukemia
COLO 205 colon = test system: COLO 205 colon
DLD-1 colon = test system: DLD-1 colon
DMS 114 small cell lung = test system: DMS 114 small cell lung
DMS 273 small cell lung = test system: DMS 273 small cell lung
EKVX NSCLC = test system: EKVX NSCLC
HCC-2998 colon = test system: HCC-2998 colon
HCT-116 colon = test system: HCT-116 colon
HCT-15 colon = test system: HCT-15 colon
HL-60(TB) leukemia = test system: HL-60(TB) leukemia
HOP-62 NSCLC = test system: HOP-62 NSCLC
HOP-92 NSCLC = test system: HOP-92 NSCLC
HT29 colon = test system: HT29 colon
IGROV1 ovarian = test system: IGROV1 ovarian
K-562 leukemia = test system: K-562 leukemia
KM12 colon = test system: KM12 colon
KM20L2 colon = test system: KM20L2 colon
LOX IMVI melanoma = test system: LOX IMVI melanoma
LXFL 529 NSCLC = test system: LXFL 529 NSCLC
M14 melanoma = test system: M14 melanoma
M19-MEL melanoma = test system: M19-MEL melanoma
MALME-3M melanoma = test system: MALME-3M melanoma
MOLT-4 leukemia = test system: MOLT-4 leukemia
NCI-H226 lung = test system: NCI-H226 lung
NCI-H460 lung = test system: NCI-H460 lung
NCI-H522 lung = test system: NCI-H522 lung
OVCAR-3 ovarian = test system: OVCAR-3 ovarian
OVCAR-4 ovarian = test system: OVCAR-4 ovarian
OVCAR-5 ovarian = test system: OVCAR-5 ovarian
OVCAR-8 ovarian = test system: OVCAR-8 ovarian
RPMI-8226 leukemia = test system: RPMI-8226 leukemia
RXF 393 renal = test system: RXF 393 renal
SF-268 CNS = test system: SF-268 CNS
SF-295 CNS = test system: SF-295 CNS
SF-539 CNS = test system: SF-539 CNS
SK-MEL-2 melanoma = test system: SK-MEL-2 melanoma
SK-MEL-28 melanoma = test system: SK-MEL-28 melanoma
SK-OV-3 ovarian = test system: SK-OV-3 ovarian
SN12C renal = test system: SN12C renal
SNB-19 CNS = test system: SNB-19 CNS
SNB-75 CNS = test system: SNB-75 CNS
SR leukemia = test system: SR leukemia
SW-620 colon = test system: SW-620 colon
TK-10 renal = test system: TK-10 renal
UACC-62 melanoma = test system: UACC-62 melanoma
UO-31 renal = test system: UO-31 renal
XF 498 CNS = test system: XF 498 CNS
786-0 renal = test system: 786-0 renal
A498 renal = test system: A498 renal
NCI-H23 lung = test system: NCI-H23 lung
SK-MEL-5 melanoma = test system: SK-MEL-5 melanoma
SNB-78 CNS = test system: SNB-78 CNS
U251 CNS = test system: U251 CNS
UACC-257 melanoma = test system: UACC-257 melanoma

**Q.** For `Cc1cc2c(C(C)C)c(O)c(O)c(C=Nc3ccccc3)c2c(O)c1-c1c(C)cc2c(C(C)C)c(O)c(O)c(C=Nc3ccccc3)c2c1O`, which TGI (A549 NSCLC) is on record?
**A.** > 100 µM

**Q.** What about the TGI (ACHN renal) of the same compound?
**A.** > 100 µM

**Q.** And the TGI (CAKI-1 renal)?
**A.** > 100 µM

**Q.** What about the TGI (CCRF-CEM leukemia) of the same compound?
**A.** > 100 µM

**Q.** What about the TGI (COLO 205 colon) of the same compound?
**A.** > 100 µM

**Q.** And the TGI (DLD-1 colon)?
**A.** > 100 µM

**Q.** And the TGI (DMS 114 small cell lung)?
**A.** > 100 µM

**Q.** What about the TGI (DMS 273 small cell lung) of the same compound?
**A.** > 100 µM

**Q.** And the TGI (EKVX NSCLC)?
**A.** > 100 µM

**Q.** And the TGI (HCC-2998 colon)?
**A.** > 100 µM

**Q.** And the TGI (HCT-116 colon)?
**A.** > 100 µM

**Q.** And the TGI (HCT-15 colon)?
**A.** > 100 µM

**Q.** What about the TGI (HL-60(TB) leukemia) of the same compound?
**A.** > 100 µM

**Q.** And the TGI (HOP-62 NSCLC)?
**A.** > 100 µM

**Q.** What about the TGI (HOP-92 NSCLC) of the same compound?
**A.** > 100 µM

**Q.** What about the TGI (HT29 colon) of the same compound?
**A.** > 100 µM

**Q.** And the TGI (IGROV1 ovarian)?
**A.** > 100 µM

**Q.** And the TGI (K-562 leukemia)?
**A.** > 100 µM

**Q.** What about the TGI (KM12 colon) of the same compound?
**A.** > 100 µM

**Q.** And the TGI (KM20L2 colon)?
**A.** > 100 µM

**Q.** And the TGI (LOX IMVI melanoma)?
**A.** > 100 µM

**Q.** What about the TGI (LXFL 529 NSCLC) of the same compound?
**A.** > 100 µM

**Q.** What about the TGI (M14 melanoma) of the same compound?
**A.** > 100 µM

**Q.** And the TGI (M19-MEL melanoma)?
**A.** > 100 µM

**Q.** What about the TGI (MALME-3M melanoma) of the same compound?
**A.** > 100 µM

**Q.** What about the TGI (MOLT-4 leukemia) of the same compound?
**A.** > 100 µM

**Q.** What about the TGI (NCI-H226 lung) of the same compound?
**A.** > 100 µM

**Q.** And the TGI (NCI-H460 lung)?
**A.** > 100 µM

**Q.** And the TGI (NCI-H522 lung)?
**A.** > 100 µM

**Q.** What about the TGI (OVCAR-3 ovarian) of the same compound?
**A.** > 100 µM

**Q.** And the TGI (OVCAR-4 ovarian)?
**A.** > 100 µM

**Q.** And the TGI (OVCAR-5 ovarian)?
**A.** > 100 µM

**Q.** What about the TGI (OVCAR-8 ovarian) of the same compound?
**A.** > 100 µM

**Q.** And the TGI (RPMI-8226 leukemia)?
**A.** > 100 µM

**Q.** And the TGI (RXF 393 renal)?
**A.** > 100 µM

**Q.** And the TGI (SF-268 CNS)?
**A.** > 100 µM

**Q.** And the TGI (SF-295 CNS)?
**A.** > 100 µM

**Q.** And the TGI (SF-539 CNS)?
**A.** > 100 µM

**Q.** And the TGI (SK-MEL-2 melanoma)?
**A.** > 100 µM

**Q.** What about the TGI (SK-MEL-28 melanoma) of the same compound?
**A.** > 100 µM

**Q.** What about the TGI (SK-OV-3 ovarian) of the same compound?
**A.** > 100 µM

**Q.** What about the TGI (SN12C renal) of the same compound?
**A.** > 100 µM

**Q.** What about the TGI (SNB-19 CNS) of the same compound?
**A.** > 100 µM

**Q.** What about the TGI (SNB-75 CNS) of the same compound?
**A.** > 100 µM

**Q.** What about the TGI (SR leukemia) of the same compound?
**A.** > 100 µM

**Q.** What about the TGI (SW-620 colon) of the same compound?
**A.** > 100 µM

**Q.** And the TGI (TK-10 renal)?
**A.** > 100 µM

**Q.** What about the TGI (UACC-62 melanoma) of the same compound?
**A.** > 100 µM

**Q.** What about the TGI (UO-31 renal) of the same compound?
**A.** > 100 µM

**Q.** And the TGI (XF 498 CNS)?
**A.** > 100 µM

**Q.** Which TGI (786-0 renal) does the source give for `Cc1cnc(SCCN2CCN(C)CC2)nc1-c1cc2ccccc2s1` here?
**A.** 24.3 µM

**Q.** And the TGI (A498 renal)?
**A.** 29.8 µM

**Q.** What about the TGI (A549 NSCLC) of the same compound?
**A.** 16 µM

**Q.** And the TGI (CAKI-1 renal)?
**A.** 16.4 µM

**Q.** And the TGI (CCRF-CEM leukemia)?
**A.** 14.2 µM

**Q.** What about the TGI (COLO 205 colon) of the same compound?
**A.** 29.2 µM

**Q.** What about the TGI (DLD-1 colon) of the same compound?
**A.** 25.4 µM

**Q.** And the TGI (DMS 114 small cell lung)?
**A.** 20.5 µM

**Q.** What about the TGI (DMS 273 small cell lung) of the same compound?
**A.** 18.1 µM

**Q.** And the TGI (HCC-2998 colon)?
**A.** 26.9 µM

**Q.** What about the TGI (HCT-116 colon) of the same compound?
**A.** 26.8 µM

**Q.** What about the TGI (HCT-15 colon) of the same compound?
**A.** 24.7 µM

**Q.** And the TGI (HOP-62 NSCLC)?
**A.** 4.81 µM

**Q.** What about the TGI (HOP-92 NSCLC) of the same compound?
**A.** 18.3 µM

**Q.** And the TGI (HT29 colon)?
**A.** 18.7 µM

**Q.** What about the TGI (KM12 colon) of the same compound?
**A.** 32.2 µM

**Q.** And the TGI (LOX IMVI melanoma)?
**A.** 18.6 µM

**Q.** What about the TGI (LXFL 529 NSCLC) of the same compound?
**A.** 27 µM

**Q.** And the TGI (M14 melanoma)?
**A.** 27.4 µM

**Q.** What about the TGI (MALME-3M melanoma) of the same compound?
**A.** 31.6 µM

**Q.** What about the TGI (MOLT-4 leukemia) of the same compound?
**A.** 7.5 µM

**Q.** What about the TGI (NCI-H226 lung) of the same compound?
**A.** 25.3 µM

**Q.** What about the TGI (NCI-H23 lung) of the same compound?
**A.** 34.3 µM

**Q.** And the TGI (NCI-H460 lung)?
**A.** 14.6 µM

**Q.** What about the TGI (NCI-H522 lung) of the same compound?
**A.** 29.6 µM

**Q.** And the TGI (OVCAR-3 ovarian)?
**A.** 24.6 µM

**Q.** And the TGI (OVCAR-4 ovarian)?
**A.** 34.1 µM

**Q.** What about the TGI (OVCAR-8 ovarian) of the same compound?
**A.** 25.8 µM

**Q.** What about the TGI (RXF 393 renal) of the same compound?
**A.** 22.7 µM

**Q.** What about the TGI (SF-295 CNS) of the same compound?
**A.** 21.2 µM

**Q.** What about the TGI (SF-539 CNS) of the same compound?
**A.** 25.1 µM

**Q.** And the TGI (SK-MEL-2 melanoma)?
**A.** 30.9 µM

**Q.** And the TGI (SK-MEL-28 melanoma)?
**A.** 32.7 µM

**Q.** And the TGI (SK-MEL-5 melanoma)?
**A.** 14.6 µM

**Q.** What about the TGI (SK-OV-3 ovarian) of the same compound?
**A.** 13.8 µM

**Q.** What about the TGI (SN12C renal) of the same compound?
**A.** 21.3 µM

**Q.** And the TGI (SNB-75 CNS)?
**A.** 24.6 µM

**Q.** What about the TGI (SNB-78 CNS) of the same compound?
**A.** 32.5 µM

**Q.** What about the TGI (SR leukemia) of the same compound?
**A.** 8.46 µM

**Q.** And the TGI (SW-620 colon)?
**A.** 24.7 µM

**Q.** What about the TGI (TK-10 renal) of the same compound?
**A.** 33.1 µM

**Q.** What about the TGI (U251 CNS) of the same compound?
**A.** 21.7 µM

**Q.** And the TGI (UACC-257 melanoma)?
**A.** 23.5 µM

**Q.** And the TGI (UACC-62 melanoma)?
**A.** 32.2 µM

**Q.** What about the TGI (UO-31 renal) of the same compound?
**A.** 20.8 µM
